Assay results from patent publication US9901596B2, “Regulation of body weight gain by using dibenzo-alpha-pyrones” (Natreon, Inc., priority 2013, dated 2018).

Key:
Type in all cases: in vivo, C57/BL6 mice
[1] = Study 3: body weight gain in mice on high fat diet, later switched to standard diet; details: starting at 14 weeks, after switching to standard laboratory diet
Procedure: Since the Studies 1 and 2 were carried out with standard laboratory diet, it was imperative to do a study with high fat diet fed mice. Study 3 was conducted using such a diet (Bio-Serve Cat# 534282, 36% fat). After 11 weeks, the high fat diet was replaced with the standard laboratory diet. […] However, starting at 14 weeks after switching to the standard laboratory diet, there is a trend in both the DBP groups for less weight gain compared to the placebo group. […] Thus, it is possible that the DBPs, especially the 3-OH-DBP, may have the potential to control body weight gain in individuals on fatty diet as well, though at a slower pace than in individuals on normal diet.

[2] = Study 2: body weight gain in mice on standard laboratory diet, 10 then 50 mg/kg DBPs; details: for less body weight gain / less gain in body weight: 10 mg/kg b.w.; for less body weight gain: at 8 weeks; for less gain in body weight: at four weeks; for less weight gain: 3 weeks after increasing the dose to 50 mg/kg b.w. (from 13th week)
Procedure: Since the results from Study 1 were totally unexpected, Study 2 was carried out in order to validate the results from Study 1 and also to determine if another bioactive of Shilajit, 3-hydroxy-dibenzo-α-pyrone, may have a similar beneficial effect on controlling body weight gain. Study 2 was carried out under similar experimental conditions as Study 1, using standard laboratory diet, except that a 10 mg/kg body weight dose was administered for the first 12 weeks and then the dose was increased to 50 mg/kg body weight from the 13th week through the 19th week. The primary purpose of increasing the dose is to find out if the response is dose proportional. […] It is interesting to note that 3 weeks after increasing the dose of DBPs to 50 mg/kg b.w., 3-OH-DBP group still maintained about 45% less weight gain while the 3,8-(OH)2-DBP group retained only about 10% less weight gain. […] The secondary purpose of increasing the dose is to find out if increased dose is toxic. Different tissues were collected from the mice and toxicological examination will be conducted.

[3] = Study 1: body weight gain in mice on standard laboratory diet, 12 weeks intragastric supplementation
Text: Materials Used: Shilajit (PrimaVie®, Natreon, Inc., New Brunswick, N.J.), a standardized dietary supplement ingredient extracted and processed from Shilajit bearing rocks, containing not less than about 50% by weight fulvic acids (FAs), at least about 10% by weight dibenzo-α-pyrone chromoproteins, and at least 0.3%, or more, by weight total dibenzo-α-pyrones (DBPs), 3-OH-DBP (99.0% purity, Natreon, Inc.), and 3,8-(OH)2-DBP (99.0% purity, Natreon, Inc) were used.
Three groups of adult C57/BL6 mice (n=8) were intragastrically supplemented with purified Shilajit (PS), 3,8-dihydroxy-dibenzo-α-pyrone (3,8-(OH)2-DBP) or placebo for 12 weeks. Body weight was measured every week. At the end of week 12, skeletal muscle tissue was harvested for gene profiling. Some tissue was stored for histology and HPLC analysis.
The control group of mice received DMSO in corn oil while the PS group received 100 mg of purified Shilajit/kg body weight of mice, dissolved in water and the DBP group received 10 mg of 3,8-(OH)2-DBP/kg body weight of mice, dissolved in DMSO/corn oil.
At week 12, the following tissues were collected: heart, lung, liver, brain, muscles, adipose tissue, skeletal muscle (vastus lateralis) and whole blood.

SMILES | trend for less weight gain compared to placebo [1] | less body weight gain [2] | less gain in body weight [2] | less weight gain [2] | weight gained in 90 days ([3]; 10 mg/kg body weight in DMSO/corn oil, intragastric, standard laboratory diet, 90 days) | overt signs of health compromise ([3]; 10 mg/kg body weight, 12 weeks) | age-dependent gain in body weight ([3]; standard laboratory diet/conditions)
O=c1oc2cc(O)ccc2c2ccccc12 [3-OH-DBP, 3-hydroxy-dibenzo-α-pyrone] | especially prominent | about 50% | about 45% | about 45% | – | – | –
O=c1oc2cc(O)ccc2c2ccc(O)cc12 [3,8-(OH)2-DBP, 3,8-dihydroxy-dibenzo-α-pyrone] | – | about 50% | ~40% | about 10% | about 7.5% | no overt signs of health compromise | significant decrease
